Reference: PMC8911640, “Synthesis and Structure–Activity Relationship of Thioacetamide-Triazoles against Escherichia coli” (Molecules, 2022)
In brackets after ≈: the same amount, converted by molar mass. Read-outs that look alike come from different tables or passages of the source.

Legend:
[1] = system: E. coli K12 MG1655; test: MIC testing by CLSI broth microdilution in M9-based minimal media ATCC 2511, with or without methionine; format: cell-based, Escherichia coli; settings: for antibacterial activity against E. coli in words: E. coli K12; for MIC90: Escherichia coli
Description: To explore the SAR around the right hand aryl portion of the TAT series (Table 1), compounds were evaluated for their in vitro antibacterial activity against E. coli in the M9-based minimal media ATCC 2511. […]. An MIC shift between the two medias was used to indicate that antibacterial activity of the compounds remained on target, and this was happily seen with all of the most MIC active compounds generated in this study. Within the first series of compounds in Table 1, modifications to the phenyl ring are generally well tolerated. MICs remain within 2-fold of the initial hit 1 for the fluoro- and cyano- substituted compounds 1–8. […]. Incorporating the electron-donating group -OMe and sterically bulky iodine group in both ortho and para position, 17–20, maintained activity, whereas the introduction of the strong electron-withdrawing -CF3 group, 21 and 22, led to poorer MIC activity. […] The phenyl ring isosteres—thiazoles 25 and 26—both retained good MIC activity. Adding a methyl branch to the thioacetamide linker 28 and 29 led to a striking loss of activity. Replacement of the aryl group with the aliphatic groups cyclohexyl 31, cyclopentyl 32, tert-butyl groups 33 all reduced activity.
MICs were determined following CLSI broth microdilution susceptibility M100 guidelines. Compound solutions were prepared in DMSO and serially diluted 1:2 in 100 μL/well in 96 well round-bottom plates. E. coli K12 MG1655 was acquired from ATCC and strictly maintained in the M9-based media ATCC 2511. ATCC 2511 was also used for all further cultivation and MIC testing. Bacteria were grown from a single colony to a mid-log OD600 and frozen in 0.5 mL aliquots. These aliquots were used to directly inoculate the assay plates by diluting to an OD600 of 0.001 and plating 100 μL per well, allowing for ~10^5 CFU to be added to each well.

[2] = No Supplement (N.S.), ATCC 2511 media, 16 h, 37 °C, read-out: E. coli K12 MIC90
[3] = MG1655, read-out: E. coli K12 MIC90
[4] = 16 h, read-out: E. coli K12 MIC90
[5] = No Supplement (N.S.), ATCC 2511 media, 16 h, 37 °C

Row | Compound | MIC90 [1, 2] [µg/mL] | melting point [°C] | MIC90 [1, 3] [µg/mL] | further results
1 | O=C(CSc1nncs1)Nc1ccccc1 [Compound 63] | > 200 | 109 to 110 |  | antibacterial activity against E. coli in words [1]: inactive
2 | O=C(CSc1cnn[nH]1)NCc1ccccc1F [Compound 38, 2-[(1H-1,2,3-triazol-5-yl)sulfanyl]-N-(2-fluorobenzyl)acetamide] | 3.1 (≈ 11.6 µM) |  |  | 
3 | Cn1cc(SCC(=O)Nc2ccccc2)nn1 [Compound 69] | > 200 |  |  | antibacterial activity against E. coli in words [1]: inactive
4 | N#Cc1ccc(NC(=O)CSc2c[nH]nn2)cn1 [Compound 15, 2-[(1H-1,2,3-triazol-4-yl)sulfanyl]-N-(6-cyanopyridin-3-yl)acetamide] | 6.3 (≈ 24.2 µM) | 198 to 199 | 50 (≈ 192 µM) | 
5 | O=C(CSc1c[nH]nn1)Nc1ccc(C(F)(F)F)cc1 [Compound 22] | 25 (≈ 82.7 µM) | 163 to 165 |  | 
6 | O=C(CSc1c[nH]nn1)Nc1ccc(I)cc1 [Compound 20, 2-[(1H-1,2,3-triazol-4-yl)sulfanyl]-N-(4-iodophenyl)acetamide] | 6.3 (≈ 17.5 µM) | 166 to 168 | 25 (≈ 69.4 µM) | 
7 | O=C(CSc1c[nH]nn1)Nc1ncccn1 [Compound 27] | 25 (≈ 106 µM) | 136 to 138 |  | 
8 | COc1ccc(NC(=O)CSc2c[nH]nn2)cc1 [Compound 18, 2-[(1H-1,2,3-triazol-4-yl)sulfanyl]-N-(4-methoxyphenyl)acetamide] | 3.1 (≈ 11.7 µM) | 130 to 131 | 12.5 (≈ 47.3 µM) | 
9 | Cn1nncc1SCC(=O)Nc1ccccc1 [Compound 68] | > 200 |  |  | antibacterial activity against E. coli in words [1]: inactive
10 | Cn1nnnc1SCC(=O)Nc1ccccc1F [Compound 65] | > 200 | 137 to 139 |  | antibacterial activity against E. coli in words [1]: inactive
11 | N#Cc1cccc(NC(=O)CSc2c[nH]nn2)c1 [Compound 8, 2-[(1H-1,2,3-triazol-4-yl)sulfanyl]-N-(3-cyanophenyl)acetamide] | 3.1 (≈ 12 µM) | 158 to 159 | 12.5 (≈ 48.2 µM) | 
12 | O=C(CSc1cnn[nH]1)NCc1ccc(F)cc1 [Compound 39, 2-[(1H-1,2,3-triazol-5-yl)sulfanyl]-N-(4-fluorobenzyl)acetamide] | 6.3 (≈ 23.7 µM) | 122 to 124 | 50 (≈ 188 µM) | 
13 | O=C(CSc1cnn[nH]1)NCc1cccc(F)c1 [Compound 41] | 6.3 (≈ 23.7 µM) | 85 to 86 |  | 
14 | O=C(CSc1cnn[nH]1)NCc1cc(F)cc(C(F)(F)F)c1 [Compound 42] | 50 (≈ 150 µM) | 82 to 84 |  | 
15 | COc1cc(Cc2cnc(N)nc2N)cc(OC)c1OC [Trimethoprim, reference compound] |  |  |  | MIC90 [1, 4]: 0.98 µg/mL (≈ 3.38 µM)
16 | O=C(CSc1c[nH]nn1)Nc1ccc(F)cn1 [Compound 14, 2-[(1H-1,2,3-triazol-4-yl)sulfanyl]-N-(5-fluoropyridin-2-yl)acetamide] | 3.1 (≈ 12.2 µM) | 151 to 153 | 12.5 (≈ 49.4 µM) | 
17 | O=C(CSc1cnn[nH]1)NCc1ccc(C(F)(F)F)cc1 [Compound 44] | 50 (≈ 158 µM) | 133 to 135 |  | 
18 | O=C(CSc1c[nH]nn1)NC1CCCCC1 [Compound 31] | 25 (≈ 104 µM) | 118 to 119 |  | 
19 | Cc1nnc(SCC(=O)Nc2ccccc2)s1 [Compound 64] | > 200 | 153 to 154 |  | antibacterial activity against E. coli in words [1]: inactive
20 | Cn1nnnc1SCC(=O)Nc1ccccc1 [Compound 62] | > 200 |  |  | antibacterial activity against E. coli in words [1]: inactive
21 | O=C(CSc1cnn[nH]1)Nc1ccccc1 [Compound 11] | 1.6 (≈ 6.83 µM) |  | 6.3 (≈ 26.9 µM) | 
22 | N#Cc1ccc(NC(=O)CSc2c[nH]nn2)nc1 [Compound 16, 2-[(1H-1,2,3-triazol-4-yl)sulfanyl]-N-(5-cyanopyridin-2-yl)acetamide] | 3.1 (≈ 11.9 µM) | 118 to 119 | 6.3 (≈ 24.2 µM) | 

Row | Compound | MIC90 [1, 2] [µg/mL] | melting point [°C] | MIC90 [1, 3] [µg/mL] | further results
23 | CCN(C(=O)CSc1c[nH]nn1)c1ccccc1F [Compound 24] | 12.5 (≈ 44.6 µM) | 82 to 83 | 25 (≈ 89.2 µM) | 
24 | O=C(CSc1c[nH]nn1)Nc1ncccc1F [Compound 13, 2-[(1H-1,2,3-triazol-4-yl)sulfanyl]-N-(3-fluoropyridin-2-yl)acetamide] | 6.3 (≈ 24.9 µM) | 99 to 100 | 25 (≈ 98.7 µM) | 
25 | Cn1nncc1SCC(=O)Nc1ccccc1F [Compound 70] | > 200 |  |  | antibacterial activity against E. coli in words [1]: inactive
26 | O=C(CSc1c[nH]nn1)Nc1ccccc1C(F)(F)F [Compound 21] | 25 (≈ 82.7 µM) | 83 to 85 |  | 
27 | CCOC(=O)c1cnc(NC(=O)CSc2c[nH]nn2)s1 [Compound 26, Ethyl 2-{2-[(1H-1,2,3-triazol-4-yl)sulfanyl]acetamido}thiazole-5-carboxylate] | 3.1 (≈ 9.89 µM) | 172 to 174 | 12.5 (≈ 39.9 µM) | 
28 | COc1ccccc1NC(=O)CSc1c[nH]nn1 [Compound 17, 2-[(1H-1,2,3-triazol-4-yl)sulfanyl]-N-(2-methoxyphenyl)acetamide] | 6.3 (≈ 23.8 µM) | 99 to 100 |  | 
29 | Cn1cc(SCC(=O)Nc2ccccc2F)nn1 [Compound 71] | > 200 |  |  | antibacterial activity against E. coli in words [1]: inactive
30 | 3-[(1H-1,2,3-triazol-4-yl)sulfanyl]-N-(2-fluorophenyl)propenamide [Compound 30] |  |  |  | E. coli K12 MIC90 ([1]; +20 μg/mL Methionine): 25 µg/mL; E. coli K12 MIC90 [1, 5]: 6.3 µg/mL
31 | Cc1nnc(SCC(=O)Nc2ccccc2F)s1 [Compound 67] | > 200 | 111 to 113 |  | antibacterial activity against E. coli in words [1]: inactive
32 | O=C(CSc1c[nH]nn1)Nc1ccccc1I [Compound 19, 2-[(1H-1,2,3-triazol-4-yl)sulfanyl]-N-(2-iodophenyl)acetamide] | 3.1 (≈ 8.61 µM) | 122 to 124 |  | 
33 | O=C(CSc1cnn[nH]1)NCc1ccccn1 [Compound 40] | 12.5 (≈ 50.1 µM) |  | > 50 | 
34 | O=C(CSc1nncs1)Nc1ccccc1F [Compound 66] | > 200 | 123 to 125 |  | antibacterial activity against E. coli in words [1]: inactive
35 | O=C(CSc1cnn[nH]1)NCc1ccc(OC(F)(F)F)cc1 [Compound 45] | 100 (≈ 301 µM) | 131 to 133 |  | 
36 | O=C(CSc1c[nH]nn1)NC1CCCC1 [Compound 33] | 12.5 (≈ 55.2 µM) | 108 to 109 | 25 (≈ 110 µM) | 
37 | CN(Cc1ccccc1F)C(=O)CSc1cnn[nH]1 [Compound 46] | 50 (≈ 178 µM) |  |  | 
38 | N#Cc1cccnc1NC(=O)CSc1c[nH]nn1 [Compound 12] | 25 (≈ 96 µM) | 113 to 114 |  | 
39 | O=C(CSc1c[nH]nn1)Nc1ccncc1 [Compound 10] | 12.5 (≈ 53.1 µM) | 187 to 188 | 50 (≈ 213 µM) | fold change (loss) in MIC activity relative to initial hit 1 ([1]; E. coli K12, no supplement): 8 fold
40 | O=C(CSc1c[nH]nn1)Nc1cccc(F)c1 [Compound 7, 2-[(1H-1,2,3-triazol-4-yl)sulfanyl]-N-(3-fluorophenyl)acetamide] | 1.6 (≈ 6.34 µM) |  | 12.5 (≈ 49.5 µM) | E. coli K12 MIC90 [1, 5]: ≤ 3.1 µg/mL
41 | Cc1cc(NS(=O)(=O)c2ccc(N)cc2)no1 [Sulfamethoxazole, reference compound] |  |  |  | MIC90 [1, 4]: 0.98 µg/mL (≈ 3.87 µM)
42 | O=C(N[C@H](CO)[C@H](O)c1ccc([N+](=O)[O-])cc1)C(Cl)Cl [Chloramphenicol, reference compound] | 1.6 (≈ 4.95 µM) |  |  | 
43 | CN(C(=O)CSc1c[nH]nn1)c1ccc(F)cc1 [Compound 23] | 25 (≈ 93.9 µM) | 95 to 96 |  | 
